Reference: publication PMC7582705, “Structure-Based Discovery of Novel Chemical Classes of Autotaxin Inhibitors” (International Journal of Molecular Sciences, 2020)
Where two headings read alike, the source gives them in different places.

Experiments:
phosphodiesterase (PDE) = test: Phosphodiesterase (PDE) colorimetric assay, 3',5'-cAMP and 3',5'-cGMP as substrates; type: biochemical; conditions: for activity against PDE: in words
Text: This colorimetric assay kit uses 3′,5′-cAMP and 3′,5′-cGMP as substrates, and it is useful for the screening of inhibitors of nucleotide phosphodiesterase activity.

mouse ATX [1] = target: T1, mouse ATX (Mus musculus, UniProt Q9R1E6); test: Mode of inhibition, modified Amplex assay, Lineweaver-Burk plots; type: biochemical; conditions: various LPC and inhibitor concentrations
T1 construct: purchased Sino Biological
Method: Lastly, to get insight into the mode of inhibition of the new ATX inhibitors developed in the present study, the Lineweaver–Burk plots were performed.
To determine the mode of inhibition of ATX by each inhibitor, a modified Amplex assay was employed. […] Mouse ATX from Sino Biological was used in all mode of inhibition assays. Thereafter, the velocity (V) of the reaction was calculated and the reciprocal of velocity (1/V) was plotted against the reciprocal of substrate concentration (1/S) in Lineweaver–Burk graphs using GraphPad Software (GraphPad Software, San Diego, CA, USA).

Solubility (Table S1) = conditions: YES/NO
mouse ATX [2] = target: T1, mouse ATX; test: Amplex Red Lyso-phospholipase D assay, mouse ATX; type: biochemical
Method: All compounds proposed were assessed for their ATX inhibitory activity in vitro using the Amplex Red assay. The Amplex Red Lyso-phospholipase D assay is a fluorometry-based assay providing a sensitive method for measuring Lyso-phospholipase D (ATX) activity in vitro. In this enzyme-coupled assay, ATX activity is monitored indirectly using 10-acetyl-3,7-dihydrophenoxazine (Amplex Red reagent), a sensitive fluorogenic probe for H2O2. ATX initially cleaves the Lysophosphatidylcholine (LPC) substrate to yield choline and Lysophosphatidic acid (LPA), while choline gets subsequently oxidized by choline oxidase to betaine and H2O2. Lastly, H2O2, in the presence of horseradish peroxidase (HRP), reacts with Amplex Red reagent in a 1:1 stoichiometry to generate the highly fluorescent product resorufin.
The inhibition assay was performed as previously described with some modifications in order to accommodate the newly-discovered lag phase in ATX kinetics. To this end, and in order to provide adequate time to the hydrolysis of LPC by ATX, we added a 30min incubation period between ATX, inhibitors and LPC. Briefly, 2 μL of different concentrations of inhibitors diluted in DMSO (Sigma-Aldrich, St. Louis, MO, USA) were incubated with 50 µL of ATX 8 nM (human or mouse ATX from Sino Biological), and 48 µL reaction buffer (50 mM Tris-Cl pH 8.0 from Thermo Fisher Scientific, Waltham, MA, USA and 5 mM CaCl2 from Honeywell-Fluka, Charlotte, NC, USA) in a black 96-well microplate for 15 min at 37 °C. Thence, another 50 µL of reaction buffer with 200 μM LPC substrate 16:0 (Avanti Polar Lipids Inc, Alabaster, AL, USA) (final concentrations of LPC and ATX are 50 µM and 2 nM, respectively) was added to the reaction mixture and incubated for 30 min at 37 °C in order for ATX to convert LPC to LPA and choline. Finally, 50 µL of working solution containing 200 μM Amplex Red (Invitrogen, Carlsbad, CA, USA), 4 U/mL HRP (Sigma-Aldrich, St. Louis, MO, USA), 0.4 U/mL choline oxidase (Sigma-Aldrich, St. Louis, MO, USA) in 50 mM Tris-HCl pH 8.0 and 5 mM CaCl2 was added to measure the produced choline. The reaction was monitored at 37 °C in a fluorescence plate reader using excitation at 530 nm and reading at 590 nm, every 5 min for 30 min. The velocity of the reaction and the remaining activity of ATX were calculated at the linear phase of the reaction and dose-response inhibition graphs were plotted with GraphPad Software (GraphPad Software, San Diego, CA, USA). […] In order to evaluate a possible effect of the compounds on the second (choline oxidase) and third (HRP) enzymes of the Amplex Red assay, we also performed the assay in the absence of ATX but in the presence of the compounds. Instead of ATX, we added choline chloride at a final concentration of 2 µM so as the second and third steps of the assay could proceed normally.

ATX [3] = target: T2, ATX (Homo sapiens, UniProt Q13822); test: IC50 Eleanna (Table S2, method not described); type: biochemical
ATX [4] = target: T2, ATX; test: Amplex Red Lyso-phospholipase D assay, human ATX; type: biochemical; parameters: purchased Sino Biological; conditions: for inhibition at 30 µM: read-out: %inhibition at 30uM
ATX [5] = target: T2, ATX; conditions: cited from earlier work
ATX [6] = target: T2, ATX; conditions: LPC assay; cited from earlier work
[7] = recombinant mouse ATX 2 nM, LPC 16:0 substrate, Amplex Red, read-out: IC50 mATX
[8] = Table S2, read-out: IC50 Eleanna
[9] = recombinant human ATX 2 nM, LPC 16:0 substrate, Amplex Red, read-out: IC50 hATX
[10] = in vitro IC50 (Sino hATX 2nM), Table S2, Sino hATX 2nM
[11] = in vitro IC50 (hATX 1nM), Table S2, hATX 1nM

Structure (SMILES)	Mode of Inhibition (mouse ATX [1])	IC50 (mouse ATX [2]; [7])	IC50 (ATX [3]; [8])	inhibition at 30 µM (ATX [4]; Table S2, at 30uM)	IC50 (ATX [4]; [9])	also measured
O=C(CCN1CCN(C(=O)OCc2cc(Cl)cc(Cl)c2)CC1)c1ccc2[nH]c(=O)oc2c1 [PF-8380, 3,5-Dichlorobenzyl 4-(3-oxo-3-(2-oxo-2,3-dihydrobenzo[d]oxazol-6-yl)propyl)piperazine-1-carboxylate, reference compound]	competitive	–	–	–	–	IC50 (phosphodiesterase (PDE)): 1.1 nM; Solubility (Solubility (Table S1)): YES
CCOC(=O)c1c(CN2CCCCC2)n(Cc2ccccc2)c2cc(Br)c(O)cc12 [KM-14, ethyl 1-benzyl-6-bromo-5-hydroxy-2-(piperidin-1-ylmethyl)-1H-indole-3-carboxylate]	mixed	–	–	–	–	IC50 (mouse ATX [2]): 5.9 µM; IC50 (ATX [3]): 800 nM; IC50 (ATX [4]): 13.8 µM; inhibition at 30 µM (ATX [4]): 69%
N[C@@H](Cc1c[nH]cn1)C(=O)O [L-Histidine]	–	–	–	–	–	IC50 (ATX inhibition) (ATX [5]): millimolar range
COc1cccc(NC(=S)N2CCn3cccc3C2c2ccc(OC)c(OC)c2)c1 (stereo not shown) [KM-26, 1-(3,4-dimethoxyphenyl)-N-(3-methoxyphenyl)-3,4-dihydro-1H-pyrrolo[1,2-a]pyrazine-2-carbothioamide]	competitive	7.4 µM	800 nM	83.3%	5.6 µM	IC50 (phosphodiesterase (PDE)): 2800 nM; activity against PDE (phosphodiesterase (PDE)): outstanding activity
O=C(Nc1c2c(nn1-c1ccc([N+](=O)[O-])cc1)CSC2)c1cccc2ccccc12 [SC-49, N-[2-(4-nitrophenyl)-4,6-dihydrothieno[3,4-c]pyrazol-3-yl]naphthalene-1-carboxamide]	–	–	–	–	–	IC50 (mouse ATX [2]): 9.7 µM; activity against PDE (phosphodiesterase (PDE)): outstanding activity; IC50 (ATX [3]): 200 nM; IC50 (ATX [4]; IC50 hATX, recombinant human ATX 2 nM, LPC 16:0 substrate, Amplex Red): 10.2 µM; IC50 (ATX [4]; [10]): 10.2 µM; IC50 (ATX [4]; [11]): 9 µM; inhibition at 30 µM (ATX [4]): 65.8%
CCCCCCCCCCCCCC(=O)Nc1ccc(CP(=O)(O)O)cc1 [Compound S32826]	–	–	–	–	–	IC50 (ATX [6]): 5.6 nM

More lines, main results first:

Mode of Inhibition (mouse ATX [1])	IC50 (mouse ATX [2]; [7])	IC50 (ATX [3]; [8])	inhibition at 30 µM (ATX [4]; Table S2, at 30uM)	IC50 (ATX [4]; [9])	Structure (SMILES)	also measured
uncompetitive	4 µM	2300 nM	70.6%	13.6 µM	Cc1[nH]c2ccccc2c1C1=CCN(S(=O)(=O)c2cccc3nsnc23)CC1 [SC-41, 4-{[4-(2-Methyl-1H-indol-3-yl)-3,6-dihydropyridin-1(2H)-yl]sulfonyl}-2,1,3-benzothiadiazole]	–
competitive	14.9 µM	500 nM	43.6%	30.5 µM	CCOC(=O)c1sc(SCc2ccccc2)c2c1CC(c1ccc(C)cc1)CC2O (stereo not shown) [KM03601, ethyl 3-benzylsulfanyl-4-hydroxy-6-(4-methylphenyl)-4,5,6,7-tetrahydro-2-benzothiophene-1-carboxylate]	IC50 (mouse ATX [2]; in vitro IC50 (mATX 2nM), Table S2, mATX 2nM): 15 µM; Solubility (Solubility (Table S1)): YES; IC50 (ATX [4]; [10]): 30.6 µM; IC50 (ATX [4]; [11]): 10 µM
mixed	6.5 µM	500 nM	69.8%	14.6 µM	CCOC(=O)C1CCN(C(=O)Cc2c(Sc3ccc(Cl)cc3)[nH]c3ccccc23)CC1 [KM-24, ethyl 1-[2-[2-(4-chlorophenyl)sulfanyl-1H-indol-3-yl]acetyl]piperidine-4-carboxylate]	–
